Source: the supplement of paper PMC11061612

How the values were obtained:
Experiment in all cases: combination Emax (second highest fraction inhibited in the dose matrix, 72 h); higher = more inhibition; extreme values may be limits of the assay
[1] = test system: BFTC-905 (Bladder Carcinoma)
Procedure, shortened: (§1)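 After 24 hours at 37°C and 5% CO2 in 1536-well plates, cells in DMEM/F12 or RPMI plus 10% FBS received two-drug dose matrices for 72 hours. Viability came from CellTiter-Glo 2.0 luminescence and was scaled as inhibition, anchored at 0 by vehicle wells and at 1 by blank wells. Combination Emax is taken as the second-highest inhibition in the matrix, and Bliss excess as the observed combination effect less EA + EB − EA·EB, with EA and EB the single-agent effects.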

[2] = test system: CAMA-1 (Breast Carcinoma)
Procedure, shortened: as §1

[3] = test system: CHP-212 (Neuroblastoma)
Procedure, shortened: as §1

[4] = test system: EVSA-T (Breast Carcinoma)
Procedure, shortened: as §1

[5] = test system: HL-60 (Acute Myeloid Leukemia)
Procedure, shortened: as §1

[6] = test system: K-562 (Chronic Myelogenous Leukemia)
Procedure, shortened: as §1

[7] = test system: KARPAS-45 (T-Lymphoblastic Leukemia)
Procedure, shortened: as §1

[8] = test system: KYSE-180 (Esophageal Squamous Cell Carcinoma)
Procedure, shortened: as §1

[9] = test system: L-540 (Hodgkin's Lymphoma)
Procedure, shortened: as §1

[10] = test system: MEL-JUSO (Melanoma)
Procedure, shortened: as §1

[11] = test system: MKN28 (Gastric Carcinoma)
Procedure, shortened: as §1

[12] = test system: MS751 (Cervical Carcinoma)
Procedure, shortened: as §1

[13] = test system: PANC-08-13 (Pancreatic Carcinoma)
Procedure, shortened: as §1

[14] = test system: SU-DHL-8 (B-Cell Non-Hodgkin's Lymphoma)
Procedure, shortened: as §1

[15] = test system: SW1417 (Colorectal Carcinoma)
Procedure, shortened: as §1

[16] = test system: SW837 (Colorectal Carcinoma)
Procedure, shortened: as §1

[17] = test system: TE-6 (Esophageal Squamous Cell Carcinoma)
Procedure, shortened: as §1

[18] = test system: TOV-112D (Ovarian Carcinoma)
Procedure, shortened: as §1

[19] = test system: U251 (Low Grade Glioma)
Procedure, shortened: as §1

[20] = test system: WIL2-NS (Non-Cancerous)
Procedure, shortened: as §1

SMILES | combination Emax [1] | combination Emax [2] | combination Emax [3] | combination Emax [4] | combination Emax [5] | combination Emax [6] | combination Emax [7] | combination Emax [8] | combination Emax [9] | combination Emax [10] | combination Emax [11] | combination Emax [12] | combination Emax [13] | combination Emax [14] | combination Emax [15] | combination Emax [16] | combination Emax [17] | combination Emax [18] | combination Emax [19] | combination Emax [20]
CN(C)CCCOc1ccc(-c2ccc3ncc4c(c3c2)n(C2CCOCC2)c(=O)n4C)cn1 [AZD0156] + C=CCn1c(=O)c2cnc(Nc3ccc(N4CCN(C)CC4)cc3)nc2n1-c1cccc(C(C)(C)O)n1 [AZD1775] (first compound max 1 µM, partner max 1 µM) | 0.517 | 0.104 | 0.831 | 0.221 | 0.387 | 0.715 | 0.854 | 0.749 | 0.954 | 0.486 | 0.481 | 0.155 | 0.247 | 0.888 | 0.407 | 0.237 | 0.232 | 0.475 | 0.398 | 0.976
CN(C)CCCOc1ccc(-c2ccc3ncc4c(c3c2)n(C2CCOCC2)c(=O)n4C)cn1 [AZD0156] + CCN(CCO)CCCOc1ccc2c(Nc3cc(CC(=O)Nc4cccc(F)c4)[nH]n3)ncnc2c1 [AZD2811] (first compound max 1 µM, 7x7, partner max 1 µM) | 0.428 | 0.14 | 0.803 | 0.269 | 0.832 | 0.23 | 0.919 | 0.0693 | 0.366 | 0.16 | 0.135 | 0.326 | 0.0865 | 0.253 | 0.104 | 0.0741 | 0.236 | 0.35 | 0.179 | 0.201
CN(C)CCCOc1ccc(-c2ccc3ncc4c(c3c2)n(C2CCOCC2)c(=O)n4C)cn1 [AZD0156] + C[C@@H]1COCCN1C2=NC(=NC(=C2)C3(CC3)[S@](=N)(=O)C)C4=C5C=CNC5=NC=C4 [AZD6738] (first compound max 1 µM, 7x7, partner max 10 µM) | 0.891 | 0.273 | 0.839 | 0.495 | 0.751 | 0.9 | 0.857 | 0.915 | 0.93 | 0.525 | 0.471 | 0.271 | 0.373 | 0.892 | 0.33 | 0.466 | 0.636 | 0.717 | 0.584 | 0.988
CN(C)CCCOc1ccc(-c2ccc3ncc4c(c3c2)n(C2CCOCC2)c(=O)n4C)cn1 [AZD0156] + O=C(c1cc(Cc2n[nH]c(=O)c3ccccc23)ccc1F)N1CCN(C(=O)C2CC2)CC1 [Olaparib] (first compound max 3 µM, partner max 3 µM) | 0.544 | 0.285 | 0.519 | 0.234 | 0.489 | 0.171 | 0.238 | 0.233 | 0.406 | 0.115 | 0.0496 | 0.232 | 0.241 | 0.266 | 0.135 | 0.185 | 0.417 | 0.552 | 0.294 | 0.6
C=CCn1c(=O)c2cnc(Nc3ccc(N4CCN(C)CC4)cc3)nc2n1-c1cccc(C(C)(C)O)n1 [AZD1775] + C1CN(CCC1(C(=O)N[C@@H](CCO)C2=CC=C(C=C2)Cl)N)C3=NC=NC4=C3C=CN4 [Capivasertib] (first compound max 3 µM, partner max 3 µM) | 0.904 | 0.775 | 0.859 | 0.958 | 0.849 | 0.895 | 0.962 | 0.8 | 0.862 | 0.442 | 0.609 | 0.899 | 0.544 | 0.953 | 0.544 | 0.692 | 0.736 | 0.889 | 0.671 | 0.953
C=CCn1c(=O)c2cnc(Nc3ccc(N4CCN(C)CC4)cc3)nc2n1-c1cccc(C(C)(C)O)n1 [AZD1775] + C[C@@H]1COCCN1C2=NC(=NC(=C2)C3(CC3)[S@](=N)(=O)C)C4=C5C=CNC5=NC=C4 [AZD6738] (first compound max 1 µM, partner max 10 µM) | 0.964 | 0.46 | 0.823 | 0.483 | 0.893 | 0.934 | 1 | 0.939 | 0.941 | 0.496 | 0.695 | 0.428 | 0.373 | 0.903 | 0.655 | 0.636 | 0.669 | 0.764 | 0.773 | 1
CN(CCO)CC[C@H](CSc1ccccc1)Nc1ccc(S(=O)(=O)NC(=O)c2ccc(N3CCC([C@@H](O)c4ccccc4-c4ccc(Cl)cc4)CC3)cc2)cc1S(=O)(=O)C(F)(F)F [AZD4320] + C1CN(CCC1(C(=O)N[C@@H](CCO)C2=CC=C(C=C2)Cl)N)C3=NC=NC4=C3C=CN4 [Capivasertib] (first compound max 1 µM, 7x7, partner max 3 µM) | 0.0682 | 0.821 | 0.176 | 0.924 | 0.873 | 0.129 | 0.987 | 0.32 | 0.279 | 0.139 | – | 0.132 | 0.422 | 0.916 | 0.709 | 0.104 | 0.633 | 0.131 | 0.181 | 0.535
CN(CCO)CC[C@H](CSc1ccccc1)Nc1ccc(S(=O)(=O)NC(=O)c2ccc(N3CCC([C@@H](O)c4ccccc4-c4ccc(Cl)cc4)CC3)cc2)cc1S(=O)(=O)C(F)(F)F [AZD4320] + C[C@@H]1COCCN1C2=NC(=NC(=C2)C3(CC3)[S@](=N)(=O)C)C4=C5C=CNC5=NC=C4 [AZD6738] (first compound max 1 µM, 7x7, partner max 10 µM) | 0.926 | 0.658 | 0.82 | 0.213 | 0.95 | 0.88 | 1 | 0.747 | 0.969 | 0.642 | 0.442 | 0.378 | 0.636 | 1 | – | 0.585 | 0.792 | 0.729 | 0.534 | 0.985
COc1nnc2ccc(N3CCC(c4ccc(OCCN5CCN(C)C(=O)[C@H]5C)cc4)CC3)nn12 [AZD5153] + CN(CC[C@H](CSC1=CC=CC=C1)NC2=C(C=C(C=C2)S(=O)(=O)NC(=O)C3=CC=C(C=C3)N4CCC(CC4)[C@H](C5=CC=CC=C5C6=CC=C(C=C6)Cl)O)S(=O)(=O)C(F)(F)F)CCO [AZD4320] (first compound max 1 µM, 7x7, partner max 1 µM) | – | – | 0.896 | 0.938 | 0.994 | – | 1 | 0.326 | – | 0.3 | – | 0.726 | 0.876 | 1 | – | – | 0.81 | 0.664 | 0.505 | –
Cc1c2c(nn1C)CSCc1cc(n(C)n1)CSc1cc(c3ccccc3c1)OCCCc1c(C(=O)O)n(C)c3c-2c(Cl)ccc13 [AZD5991] + C1CN(CCC1(C(=O)N[C@@H](CCO)C2=CC=C(C=C2)Cl)N)C3=NC=NC4=C3C=CN4 [Capivasertib] (first compound max 1 µM, 7x7, partner max 3 µM) | 0.206 | 0.994 | – | 1 | 1 | 0.374 | 1 | 0.922 | 1 | 0.346 | 0.12 | 0.855 | 0.15 | 0.673 | 0.208 | 0.121 | 0.811 | 0.407 | 0.224 | 0.666
CC(=O)c1c(C)c2cnc(Nc3ccc(N4CCNCC4)cn3)nc2n(C2CCCC2)c1=O [Palbociclib] + CN(CC[C@H](CSC1=CC=CC=C1)NC2=C(C=C(C=C2)S(=O)(=O)NC(=O)C3=CC=C(C=C3)N4CCC(CC4)[C@H](C5=CC=CC=C5C6=CC=C(C=C6)Cl)O)S(=O)(=O)C(F)(F)F)CCO [AZD4320] (first compound max 10 µM, 7x7, partner max 1 µM) | – | – | 0.829 | 0.444 | 0.956 | – | 1 | 0.462 | – | 0.356 | – | 0.159 | 0.384 | 1 | – | – | 0.363 | 0.584 | 0.294 | –
CCc1c2c(nc3ccc(O)cc13)-c1cc3c(c(=O)n1C2)COC(=O)[C@]3(O)CC [SN-38] + O=C(c1cc(Cc2n[nH]c(=O)c3ccccc23)ccc1F)N1CCN(C(=O)C2CC2)CC1 [Olaparib] (first compound max 0.3 µM, 7x7, partner max 10 µM) | 0.974 | 0.299 | – | 0.784 | – | 0.672 | – | 0.527 | 0.965 | – | 0.553 | 0.899 | 0.297 | – | 0.694 | 0.506 | – | 0.965 | – | 1
C[C@@H](c1ccc2nccn2c1)n1nnc2ncc(-c3cnn(C)c3)nc21 [Savolitinib] + CN(CC[C@H](CSC1=CC=CC=C1)NC2=C(C=C(C=C2)S(=O)(=O)NC(=O)C3=CC=C(C=C3)N4CCC(CC4)[C@H](C5=CC=CC=C5C6=CC=C(C=C6)Cl)O)S(=O)(=O)C(F)(F)F)CCO [AZD4320] (first compound max 1 µM, 7x7, partner max 1 µM) | – | – | 0.178 | 0.248 | 0.856 | – | 0.976 | 0.13 | – | 0.257 | – | 0.184 | 0.394 | 0.932 | – | – | 0.427 | 0.0682 | 0.176 | –
